Measured values reported in patent publication US7435837B2, “Dihydrobenzofuranyl alkanamine derivatives and methods for using same” (Wyeth, priority 2003, dated 2008).

Target: T1, human 5-hydroxytryptamine-2C (h5-HT2C) receptor (Homo sapiens, UniProt P28335)
T1 construct: expressed in transfected cells; host or cells: CHO (Chinese Hamster Ovary) cells; membranes
T1 sequence (P28335 33-458): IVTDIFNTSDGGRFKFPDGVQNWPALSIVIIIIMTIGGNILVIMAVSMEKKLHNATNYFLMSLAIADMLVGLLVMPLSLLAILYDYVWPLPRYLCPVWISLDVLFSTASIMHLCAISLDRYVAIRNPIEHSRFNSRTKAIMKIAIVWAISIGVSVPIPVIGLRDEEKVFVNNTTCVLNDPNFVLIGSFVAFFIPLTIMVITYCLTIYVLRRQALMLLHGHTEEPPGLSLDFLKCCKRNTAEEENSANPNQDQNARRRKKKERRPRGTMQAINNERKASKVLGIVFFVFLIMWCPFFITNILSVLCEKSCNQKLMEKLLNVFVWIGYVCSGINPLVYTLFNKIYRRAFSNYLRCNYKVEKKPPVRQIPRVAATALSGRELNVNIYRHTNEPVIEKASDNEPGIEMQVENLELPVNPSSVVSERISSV
Assay: [125I]DOI binding to membranes of CHO cells expressing the human 5-HT2C receptor
Conditions: [125I]DOI radioligand, CHO cell membranes, room temperature 60 min; read-out: 5-HT2C Affinity Ki

Row | SMILES | Ki [nM]
1 | NCC1Cc2cc(C(F)(F)F)cc(-c3ccc(Cl)cc3)c2O1 (racemic) [Example 325, (±)-{[5-(trifluoromethyl)-7-(4-chlorophenyl)-2,3-dihydro-1-benzofuran-2-yl]methyl}amine] | 320
2 | NCC1Cc2cccc(Nc3cc(F)cc(F)c3)c2O1 (racemic) [Example 186, (±)-N-[2-(aminomethyl)-2,3-dihydro-1-benzofuran-7-yl]-N-(3,5-difluorophenyl)amine] | 171
3 | CNCC1Cc2cc(-c3cccc(C)c3)cc(F)c2O1 (racemic) [Example 533, (±)-{7-fluoro-5-[3-methylphenyl]-2,3-dihydro-1-benzofuran-2-yl}methyl)methylamine] | 1520
4 | NCC1Cc2ccc(-c3ccccc3)cc2O1 (racemic) [Example 31, (±)-(6-phenyl-2,3-dihydro-1-benzofuran-2-yl)methanamine] | 1370
5 | CNCC1Cc2cc(-c3cccc(Cl)c3)cc(F)c2O1 (racemic) [Example 534, (±)-{7-fluoro-5-[3-chlorophenyl]-2,3-dihydro-1-benzofuran-2-yl}methyl)methylamine] | 1050
6 | Cc1cc(Cl)ccc1-c1cc(F)cc2c1O[C@@H](CN)C2 [Example 549, {[(2R)-7-(4-chloro-2-methylphenyl)-5-fluoro-2,3-dihydro-1-benzofuran-2-yl]methyl}amine] | 3.1
7 | CNCC1Cc2ccc(Cl)c(-c3ccccc3Cl)c2O1 (racemic) [Example 404, (±)-{[6-chloro-7-(2-chlorophenyl)-2,3-dihydro-1-benzofuran-2-yl]methyl}methylamine] | 0.4
8 | CNCC1Cc2cc(C(F)(F)F)cc(-c3cccc(C)c3)c2O1 (racemic) [Example 519, (±)-N-methyl-1-[7-(3-methylphenyl)-5-(trifluoromethyl)-2,3-dihydro-1-benzofuran-2-yl]methanamine] | 488
9 | CNCC1Cc2cc(-c3cccc(F)c3)cc(F)c2O1 (racemic) [Example 535, (±)-{[7-fluoro-5-(3-fluorophenyl)-2,3-dihydro-1-benzofuran-2-yl]methyl}methylamine] | 1090
10 | NCC1Cc2cccc(/C=C/c3ccccc3)c2O1 (racemic) [Example 119, (±)-1-{7-[(E)-2-phenylvinyl]-2,3-dihydro-1-benzofuran-2-yl}methanamine] | 78
11 | COc1cccc(-c2cc(F)cc3c2OC(CN)C3)c1 (racemic) [Example 197, (±)-{[5-fluoro-7-(3-methoxyphenyl)-2,3-dihydro-1-benzofuran-2-yl]methyl}amine] | 63
12 | NCC1Cc2cc(C(F)(F)F)cc(-c3cccc(Cl)c3)c2O1 (racemic) [Example 320, (±)-{[5-(trifluoromethyl)-7-(3-chlorophenyl)-2,3-dihydro-1-benzofuran-2-yl]methyl}amine] | 107
13 | NCC1Cc2cccc(-c3cc(C(F)(F)F)cc(C(F)(F)F)c3)c2O1 (racemic) [Example 32, (±)-1-{7-[3,5-bis(trifluoromethyl)phenyl]-2,3-dihydro-1-benzofuran-2-yl}methanamine] | 419
14 | NCC1Cc2cc(C(F)(F)F)cc(-c3cccc(F)c3F)c2O1 (racemic) [Example 329, (±)-{[7-(2,3-difluorophenyl)-5-(trifluoromethyl)-2,3-dihydro-1-benzofuran-2-yl]methyl}amine] | 87
15 | CNCC1Cc2cc(OC)cc(-c3ccc(F)c(Cl)c3)c2O1 (racemic) [Example 503, (±)-{[7-(3-chloro-4-fluorophenyl)-5-methoxy-2,3-dihydro-1-benzofuran-2-yl]methyl}methylamine] | 78
16 | NCC1Cc2cc(-c3ccc(Cl)cc3)cc(F)c2O1 (racemic) [Example 386, (±)-{[7-fluoro-5-(4-chlorophenyl)-2,3-dihydro-1-benzofuran-2-yl]methyl}amine] | 1020

Same assay, conditions: saturation binding with increasing concentrations of [125I] DOI; read-out: dissociation constant, KD

Row | SMILES | Kd [nM]
17 | COc1cc(CC(C)N)c(OC)cc1I (centres unmarked) [[^125I] DOI, reference compound] | 0.4
